The values that follow come from patent publication US7124068B2, “Crystal structure of a deacetylase and inhibitors thereof” (Sloan-Kettering Institute for Cancer Research, priority 1999, dated 2006).

One assay concerns lung tumors. The following applies: mice; cited from earlier work.
In another assay the test system is mammary tumors. Conditions: rats; cited from earlier work.
The next assay relates to PLZF-RARα APL cells. Conditions: cited from earlier work.
In another assay the test system is HDLP. As to the kind of experiment: Histone deacetylase assay with [3H] acetyl-labeled histone substrate. The assay is classed as biochemical, Aquifex aeolicus. Conditions: in vitro.

As to suberoylanilide hydroxamic acid [SAHA], the “preventing the formation of lung tumors” value in the assay with lung tumors was “effective”. Also, in the assay on mammary tumors, the “preventing the formation of mammary tumors” value is reported as “effective”.

Turning to `CC(/C=C/C(=O)NO)=C\[C@@H](C)C(=O)c1ccc(N(C)C)cc1` [TSA, trichostatin A], in the assay on PLZF-RARα APL cells, the “responsiveness to retinoic acid-induced differentiation” value was “enhances their responsiveness”. The “inhibition of HDLP histone deacetylase activity” value in the assay on HDLP is “inhibited”.
